For assay [1] the following is noted: cited from earlier work.
Assay [2] addresses T1, hSCN3A (Homo sapiens, UniProt Q9NY46).
T1 construct: expressed in transfected cells
Kind of assay: SCN3A inhibitory activity in HEK cells stably expressing hSCN3A (whole-cell patch clamp / radiotracer efflux HTS). In kind it is cell-based. The following applies: HEK cells stably transfected with hSCN3A.

For assay [3], the target named is Nav1.3 (Homo sapiens, UniProt Q9NY46). Conditions: read-out: TTX IC-50; cited from earlier work.
Nav1.3, sequence (Q9NY46 whole entry, looked up): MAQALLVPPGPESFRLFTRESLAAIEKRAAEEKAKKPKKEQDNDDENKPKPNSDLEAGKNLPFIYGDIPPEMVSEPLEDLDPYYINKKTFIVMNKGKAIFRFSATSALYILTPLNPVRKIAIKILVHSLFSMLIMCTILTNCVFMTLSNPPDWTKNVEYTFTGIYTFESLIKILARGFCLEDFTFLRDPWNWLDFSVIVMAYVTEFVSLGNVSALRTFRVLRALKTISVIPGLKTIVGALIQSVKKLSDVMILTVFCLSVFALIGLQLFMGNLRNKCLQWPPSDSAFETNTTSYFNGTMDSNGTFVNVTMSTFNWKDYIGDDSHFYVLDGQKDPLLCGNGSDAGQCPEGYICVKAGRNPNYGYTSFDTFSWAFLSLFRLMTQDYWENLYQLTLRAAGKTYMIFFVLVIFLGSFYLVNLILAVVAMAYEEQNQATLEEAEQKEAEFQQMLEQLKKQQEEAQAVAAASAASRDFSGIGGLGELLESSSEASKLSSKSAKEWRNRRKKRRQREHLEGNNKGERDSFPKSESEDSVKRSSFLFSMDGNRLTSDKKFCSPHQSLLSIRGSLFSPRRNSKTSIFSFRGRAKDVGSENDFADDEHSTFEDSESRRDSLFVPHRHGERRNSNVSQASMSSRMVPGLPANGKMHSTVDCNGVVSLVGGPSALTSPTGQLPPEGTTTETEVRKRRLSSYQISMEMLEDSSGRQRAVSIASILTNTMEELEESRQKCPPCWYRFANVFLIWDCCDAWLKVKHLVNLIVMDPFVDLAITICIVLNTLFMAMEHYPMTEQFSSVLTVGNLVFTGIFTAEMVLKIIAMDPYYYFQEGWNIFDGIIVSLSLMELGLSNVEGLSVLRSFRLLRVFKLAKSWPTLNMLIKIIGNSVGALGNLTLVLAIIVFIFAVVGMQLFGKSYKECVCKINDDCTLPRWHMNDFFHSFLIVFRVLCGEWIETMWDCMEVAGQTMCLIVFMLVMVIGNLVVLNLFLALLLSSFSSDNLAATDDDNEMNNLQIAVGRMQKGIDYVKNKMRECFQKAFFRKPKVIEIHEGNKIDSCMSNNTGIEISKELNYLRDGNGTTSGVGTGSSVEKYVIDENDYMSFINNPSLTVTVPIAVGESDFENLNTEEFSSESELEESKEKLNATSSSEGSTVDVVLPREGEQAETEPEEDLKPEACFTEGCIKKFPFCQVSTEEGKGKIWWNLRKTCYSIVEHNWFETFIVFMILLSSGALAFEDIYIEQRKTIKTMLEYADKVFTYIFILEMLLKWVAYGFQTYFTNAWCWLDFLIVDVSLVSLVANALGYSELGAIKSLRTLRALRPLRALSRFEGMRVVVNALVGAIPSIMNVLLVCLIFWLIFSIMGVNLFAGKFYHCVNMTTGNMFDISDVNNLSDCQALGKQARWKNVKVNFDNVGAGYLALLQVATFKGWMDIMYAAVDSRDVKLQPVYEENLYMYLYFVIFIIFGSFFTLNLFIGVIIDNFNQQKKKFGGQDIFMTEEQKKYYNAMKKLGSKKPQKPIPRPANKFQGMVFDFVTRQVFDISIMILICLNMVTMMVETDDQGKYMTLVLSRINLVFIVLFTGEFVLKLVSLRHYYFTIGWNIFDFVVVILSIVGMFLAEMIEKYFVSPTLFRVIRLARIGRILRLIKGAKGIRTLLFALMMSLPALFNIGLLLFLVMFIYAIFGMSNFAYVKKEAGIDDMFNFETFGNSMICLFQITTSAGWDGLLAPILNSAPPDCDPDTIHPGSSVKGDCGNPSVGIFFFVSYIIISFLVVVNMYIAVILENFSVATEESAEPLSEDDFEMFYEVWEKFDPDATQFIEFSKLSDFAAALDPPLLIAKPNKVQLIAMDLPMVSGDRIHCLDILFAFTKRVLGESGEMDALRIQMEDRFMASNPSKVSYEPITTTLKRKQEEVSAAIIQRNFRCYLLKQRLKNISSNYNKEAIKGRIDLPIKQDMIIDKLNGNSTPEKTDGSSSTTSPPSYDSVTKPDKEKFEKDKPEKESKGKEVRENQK
Assay [4] has as its target Nav1.6 (Homo sapiens, UniProt Q9UQD0). Conditions: read-out: TTX IC-50; cited from earlier work.
Assay [5] concerns the target Nav1.8 (Homo sapiens, UniProt Q9Y5Y9). Conditions: read-out: TTX IC-50; cited from earlier work.
In assay [6] the target is Nav1.9 (Homo sapiens, UniProt Q9UI33). The following applies: read-out: TTX IC-50; cited from earlier work.
Assay [7] addresses Nav1.1 (Homo sapiens, UniProt P35498). The following applies: read-out: TTX IC-50; cited from earlier work.
Assay [8] deals with Nav1.2 (Homo sapiens, UniProt Q99250). The following applies: read-out: TTX IC-50; cited from earlier work.

T1 sequence (Q9NY46 whole entry): as the sequence (Q9NY46 whole entry, looked up) above
Nav1.8, sequence (Q9Y5Y9 whole entry, looked up): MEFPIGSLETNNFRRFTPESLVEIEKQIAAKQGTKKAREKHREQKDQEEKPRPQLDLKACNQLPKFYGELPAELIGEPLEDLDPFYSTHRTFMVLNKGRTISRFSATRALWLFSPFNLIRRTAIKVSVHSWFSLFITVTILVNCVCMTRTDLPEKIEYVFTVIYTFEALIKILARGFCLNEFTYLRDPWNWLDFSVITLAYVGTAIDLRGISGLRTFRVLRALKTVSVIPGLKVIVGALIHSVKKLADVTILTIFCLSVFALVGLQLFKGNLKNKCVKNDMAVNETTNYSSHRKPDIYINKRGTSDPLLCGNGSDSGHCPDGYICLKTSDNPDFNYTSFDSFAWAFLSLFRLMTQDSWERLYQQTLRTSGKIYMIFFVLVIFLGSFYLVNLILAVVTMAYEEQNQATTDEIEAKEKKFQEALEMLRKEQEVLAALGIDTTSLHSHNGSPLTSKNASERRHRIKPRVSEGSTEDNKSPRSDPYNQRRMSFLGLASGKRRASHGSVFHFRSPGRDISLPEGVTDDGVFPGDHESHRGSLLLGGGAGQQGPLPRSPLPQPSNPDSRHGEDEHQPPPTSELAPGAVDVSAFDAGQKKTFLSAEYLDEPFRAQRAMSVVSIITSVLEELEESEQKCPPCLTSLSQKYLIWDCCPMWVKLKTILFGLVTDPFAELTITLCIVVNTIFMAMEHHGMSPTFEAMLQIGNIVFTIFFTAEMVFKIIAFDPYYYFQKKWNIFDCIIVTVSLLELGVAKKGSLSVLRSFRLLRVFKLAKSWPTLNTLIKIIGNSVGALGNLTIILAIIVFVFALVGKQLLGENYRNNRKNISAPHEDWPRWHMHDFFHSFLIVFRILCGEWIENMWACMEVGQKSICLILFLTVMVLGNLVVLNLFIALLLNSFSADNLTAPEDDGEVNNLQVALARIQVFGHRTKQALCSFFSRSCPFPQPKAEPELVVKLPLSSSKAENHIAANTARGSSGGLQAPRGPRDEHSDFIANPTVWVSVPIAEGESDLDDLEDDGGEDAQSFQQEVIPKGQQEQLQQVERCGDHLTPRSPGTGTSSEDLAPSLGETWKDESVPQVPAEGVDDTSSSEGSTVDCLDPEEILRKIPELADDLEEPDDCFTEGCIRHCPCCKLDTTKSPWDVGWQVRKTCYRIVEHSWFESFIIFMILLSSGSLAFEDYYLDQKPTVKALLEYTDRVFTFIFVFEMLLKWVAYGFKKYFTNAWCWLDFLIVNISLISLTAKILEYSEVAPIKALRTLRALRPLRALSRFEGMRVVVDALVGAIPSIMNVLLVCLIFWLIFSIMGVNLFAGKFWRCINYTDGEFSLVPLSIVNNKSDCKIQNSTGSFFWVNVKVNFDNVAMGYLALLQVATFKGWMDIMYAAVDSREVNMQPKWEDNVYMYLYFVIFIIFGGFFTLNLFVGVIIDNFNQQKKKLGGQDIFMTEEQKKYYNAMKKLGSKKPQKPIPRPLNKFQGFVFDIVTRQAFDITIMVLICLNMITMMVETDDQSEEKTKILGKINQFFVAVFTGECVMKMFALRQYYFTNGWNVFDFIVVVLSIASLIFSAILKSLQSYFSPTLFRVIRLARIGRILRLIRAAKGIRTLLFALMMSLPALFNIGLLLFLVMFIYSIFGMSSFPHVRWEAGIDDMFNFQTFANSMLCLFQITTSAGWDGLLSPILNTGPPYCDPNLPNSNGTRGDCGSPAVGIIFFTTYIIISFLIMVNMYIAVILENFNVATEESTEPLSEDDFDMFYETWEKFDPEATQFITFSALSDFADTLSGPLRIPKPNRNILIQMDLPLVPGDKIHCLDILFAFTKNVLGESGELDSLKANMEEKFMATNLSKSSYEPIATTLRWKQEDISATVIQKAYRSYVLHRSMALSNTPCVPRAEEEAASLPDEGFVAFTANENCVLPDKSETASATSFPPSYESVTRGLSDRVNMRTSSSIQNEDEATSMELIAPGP

Regarding `NCC1(CC(=O)O)CCCCC1` [gabapentin], in assay [1], the “patients respond to gabapentin treatment for neuropathic pain” value is recorded as 30%. In assay [2], `O=S(=O)(Nc1nccs1)c1ccc(-c2nc(CCc3cc(Cl)cc(Cl)c3)c[nH]2)cc1` [Compound 26, 4-{4-[2-(3,5-Dichloro-phenyl)-ethyl]-1H-imidazol-2-yl}-N-thiazol-2-yl-benzenesulfonamide] yielded an IC50 below 100 nM.

`NC1=N[C@H](O)[C@H]2[C@H]3O[C@]4(O)O[C@@H]([C@@H](O)[C@@]2(N1)[C@@H]4O)[C@]3(O)CO` [TTX, tetrodotoxin]: the IC50 is 15 nM in assay [3]; 6 nM in assay [4]; 50000 nM in assay [5]; 1000 nM in assay [6]; 10 nM in assay [7]; 10 nM in assay [8]. Take `O=S(=O)(Nc1nccs1)c1ccc(-c2nc(C(c3ccccc3)C3CCCCC3)c[nH]2)cc1` (stereo not drawn) [Compound 47, 4-[4-(Cyclohexyl-phenyl-methyl)-1H-imidazol-2-yl]-N-thiazol-2-yl-benzenesulfonamide]: in assay [2], the IC50 was 100 to 500 nM. The same measure, in the same setting: with `O=S(=O)(Nc1nccs1)c1ccc(-c2nc(CCc3cc(Cl)cc(Cl)c3)c(I)[nH]2)cc1` [Compound 68, 4-{4-[2-(3,5-Dichloro-phenyl)-ethyl]-5-iodo-1H-imidazol-2-yl}-N-thiazol-2-yl-benzenesulfonamide] the figure was below 100 nM. Still for that read-out and setting: with `O=S(=O)(Nc1nccs1)c1ccc(-c2nc(CCc3cc(C(F)(F)F)ccc3C(F)(F)F)c[nH]2)cc1` [Compound 22, 4-{4-[2-(2,5-Bis-trifluoromethyl-phenyl)-ethyl]-1H-imidazol-2-yl}-N-thiazol-2-yl-benzenesulfonamide] the figure was 100 to 500 nM; with `CC1(c2ccc(S(=O)(=O)Nc3nccs3)cc2)C(=O)NC(=O)N1Cc1ccc(Cl)c(Cl)c1` (stereo not drawn) [Compound 99, 4-[3-(3,4-Dichloro-benzyl)-4-methyl-2,5-dioxo-imidazolidin-4-yl]-N-thiazol-2-yl-benzenesulfonamide], above 1000 nM; with `O=S(=O)(Nc1nccs1)c1ccc(-c2nc(Cc3cccc(Cl)c3)c[nH]2)cc1` [Compound 16, 4-[4-(3-Chloro-benzyl)-1H-imidazol-2-yl]-N-thiazol-2-yl-benzenesulfonamide], below 100 nM. Turning to `O=S(=O)(Nc1nccs1)c1ccc(-c2nc(Cc3ccc(Oc4ccccc4)cc3)c[nH]2)cc1` [Compound 42, 4-[4-(4-Phenoxy-benzyl)-1H-imidazol-2-yl]-N-thiazol-2-yl-benzenesulfonamide], the IC50 in assay [2] is below 100 nM. Take `Cc1ccc(C)c(CCc2c[nH]c(-c3ccc(S(=O)(=O)Nc4nccs4)cc3)n2)c1` [Compound 29, 4-{4-[2-(2,5-Dimethyl-phenyl)-ethyl]-1H-imidazol-2-yl}-N-thiazol-2-yl-benzenesulfonamide]: the IC50 in assay [2] was 100 to 500 nM.

For the compound `O=S(=O)(Nc1nccs1)c1ccc(-c2nc(CCCOc3ccc(Cl)cc3Cl)c[nH]2)cc1` [Compound 11, 4-{4-[3-(2,4-Dichloro-phenoxy)-propyl]-1H-imidazol-2-yl}-N-thiazol-2-yl-benzenesulfonamide], the IC50 in assay [2] was below 100 nM. `O=S(=O)(Nc1nccs1)c1ccc(-c2nc(COc3ncc(C(F)(F)F)cc3Cl)n[nH]2)cc1` [Compound 117, 4-[5-(3-Chloro-5-trifluoromethyl-pyridin-2-yloxymethyl)-2H-[1,2,4]triazol-3-yl]-n-thiazol-2-yl-benzenesulfonamide] showed an IC50 in assay [2] of 500 to 1000 nM.

Compound `O=S(=O)(Nc1nccs1)c1ccc(-c2nc(CCc3cccc(Cl)c3)c[nH]2)cc1` [Compound 28, 4-{4-[2-(3-Chloro-phenyl)-ethyl]-1H-imidazol-2-yl}-N-thiazol-2-yl-benzenesulfonamide] registered an IC50 in assay [2] of 100 to 500 nM.

In assay [2], `O=S(=O)(Nc1nccs1)c1ccc(-c2nc(Cc3ccccc3C(F)(F)F)c[nH]2)cc1` [Compound 51, N-Thiazol-2-yl-4-[4-(2-trifluoromethyl-benzyl)-1H-imidazol-2-yl]-benzenesulfonamide] yielded an IC50 of 100 to 500 nM. Still for that read-out and setting: in the case of `O=S(=O)(Nc1nccs1)c1ccc(-c2nc(Cc3ccc(F)cc3Cl)c[nH]2)cc1` [Compound 13, 4-[4-(2-Chloro-4-fluoro-benzyl)-1H-imidazol-2-yl]-N-thiazol-2-yl-benzenesulfonamide] it was below 100 nM. The same measure, in the same setting: in the case of `O=S(=O)(Nc1nccs1)c1ccc(-c2nc(Cc3cccc(OC(F)(F)F)c3)c[nH]2)cc1` [Compound 43, N-Thiazol-2-yl-4-[4-(3-trifluoromethoxy-benzyl)-1H-imidazol-2-yl]-benzenesulfonamide] it was 500 to 1000 nM.

The values above are taken from US7615569B2, “Inhibitors of ion channels” (Icagen, Inc., priority 2005, dated 2009).
